The values that follow are results of earlier work, collected in paper PMC9689602, “Evaluation of ^68Ga-Radiolabeled Peptides for HER2 PET Imaging” (Diagnostics, 2022).

Where two headings read alike, the source gives them in different places.

One series relates to mice. The conditions noted are these: up to 1 g/kg intravenous injection. From the text: One drawback for peptides is their susceptibility to degradation from proteases present within organisms. […] Phosphoramidon can be used as an aid to protect peptides from quick degradation when evaluating our peptides in vivo. […] We are using phosphoramidon as a to ...
Another series deals with HER2. The protocol: Peptide imaging agents allow for quicker injection to imaging times along with a potential decrease in dose to the patient by using a shorter-lived radioisotope. Radiolabeled peptides are currently used in the clinic for the diagnosis of several cancer types. A widely used example is [^68Ga]DOTATATE (NETSPOT®) which was given FDA approval in 2016 and is used for imaging somatostatin receptor type 2 on neuroendocrine cancer with patient imaging 40 to 90 min after intravenous administration. Several HER2-targeting peptides have been reported which could have the potential to be ...

On to `CC(C)C[C@H](NP(=O)(O)O[C@@H]1O[C@@H](C)[C@H](O)[C@@H](O)[C@H]1O)C(=O)N[C@@H](Cc1c[nH]c2ccccc12)C(=O)O` [phosphoramidon, Phosphoramidon], for which the toxicity in mice entry with mice is “low toxicity and no death”.

DTFPYLGWWNPNEYRY: the Kd at HER2 (highest affinity in OBOC library, read-out: affinity (Kd)) was 0.0186 µM.

For HER2 (from UniProt P04626), in the series with KCCYSL peptide, the Kd is 30 µM.

With KCCYSL, the Kd on HER2 (binding to HER2, read-out: equilibrium dissociation constant) is 30 µM.
